Laboratory results as given in publication PMC6812009, “Covalent Aurora A regulation by the metabolic integrator coenzyme A” (Redox Biology, 2019).

Columns and labels:
Experiment in all cases: Kinase profiling screen (radioactive filter-binding assay)
Assay type in all cases: biochemical
ASK1 = target: T1, ASK1 (Homo sapiens, UniProt Q99683); conditions: 100 μM compound, 50 μM ATP; read-out: Kinase activity, % of activity in the absence of inhibitor
T1 sequence (Q99683 1-1374): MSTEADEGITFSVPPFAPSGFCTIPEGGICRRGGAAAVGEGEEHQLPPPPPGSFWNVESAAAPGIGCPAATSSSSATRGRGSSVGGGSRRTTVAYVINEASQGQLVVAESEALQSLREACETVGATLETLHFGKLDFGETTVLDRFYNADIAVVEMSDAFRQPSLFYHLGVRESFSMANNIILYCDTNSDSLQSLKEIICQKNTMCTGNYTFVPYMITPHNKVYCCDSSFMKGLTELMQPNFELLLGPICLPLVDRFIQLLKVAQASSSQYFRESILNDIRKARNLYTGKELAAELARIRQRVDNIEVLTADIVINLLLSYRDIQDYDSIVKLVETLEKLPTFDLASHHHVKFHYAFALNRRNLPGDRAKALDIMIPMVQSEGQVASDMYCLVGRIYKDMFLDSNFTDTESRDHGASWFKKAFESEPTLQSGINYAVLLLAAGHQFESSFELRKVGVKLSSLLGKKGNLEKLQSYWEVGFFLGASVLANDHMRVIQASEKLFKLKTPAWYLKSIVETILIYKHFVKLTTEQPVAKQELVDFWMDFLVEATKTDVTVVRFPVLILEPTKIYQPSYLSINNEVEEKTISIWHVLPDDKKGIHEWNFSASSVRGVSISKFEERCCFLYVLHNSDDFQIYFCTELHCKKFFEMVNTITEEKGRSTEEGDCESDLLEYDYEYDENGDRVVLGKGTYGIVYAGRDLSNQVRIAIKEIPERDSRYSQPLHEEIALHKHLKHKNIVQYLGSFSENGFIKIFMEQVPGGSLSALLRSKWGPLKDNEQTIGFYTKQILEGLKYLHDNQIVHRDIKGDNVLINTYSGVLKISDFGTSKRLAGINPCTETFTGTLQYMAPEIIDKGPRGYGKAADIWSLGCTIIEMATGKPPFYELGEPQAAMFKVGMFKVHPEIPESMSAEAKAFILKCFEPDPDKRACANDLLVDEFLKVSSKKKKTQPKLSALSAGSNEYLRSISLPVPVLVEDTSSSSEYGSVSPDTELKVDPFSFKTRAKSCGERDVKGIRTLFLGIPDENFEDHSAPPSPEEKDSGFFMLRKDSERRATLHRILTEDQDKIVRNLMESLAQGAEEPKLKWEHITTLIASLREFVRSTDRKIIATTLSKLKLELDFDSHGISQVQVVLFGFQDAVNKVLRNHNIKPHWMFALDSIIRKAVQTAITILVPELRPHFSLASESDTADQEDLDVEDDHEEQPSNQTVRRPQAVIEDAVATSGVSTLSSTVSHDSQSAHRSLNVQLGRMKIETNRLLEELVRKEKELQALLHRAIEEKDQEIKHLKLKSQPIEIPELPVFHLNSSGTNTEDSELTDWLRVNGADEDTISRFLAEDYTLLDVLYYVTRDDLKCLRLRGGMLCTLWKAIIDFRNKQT
How it was run: (§1)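 CoA, dpCoA and ADP were each tested in vitro, in duplicate, at 100 μM final concentration as part of a 117-kinase panel. Recombinant kinases were used with model substrates and optimal ATP concentrations.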

CLK2 = CLK2 (Homo sapiens, UniProt P49760); conditions: 100 μM compound, 5 μM ATP; read-out: Kinase activity, % of activity in the absence of inhibitor
Chain of CLK2 (P49760 whole entry): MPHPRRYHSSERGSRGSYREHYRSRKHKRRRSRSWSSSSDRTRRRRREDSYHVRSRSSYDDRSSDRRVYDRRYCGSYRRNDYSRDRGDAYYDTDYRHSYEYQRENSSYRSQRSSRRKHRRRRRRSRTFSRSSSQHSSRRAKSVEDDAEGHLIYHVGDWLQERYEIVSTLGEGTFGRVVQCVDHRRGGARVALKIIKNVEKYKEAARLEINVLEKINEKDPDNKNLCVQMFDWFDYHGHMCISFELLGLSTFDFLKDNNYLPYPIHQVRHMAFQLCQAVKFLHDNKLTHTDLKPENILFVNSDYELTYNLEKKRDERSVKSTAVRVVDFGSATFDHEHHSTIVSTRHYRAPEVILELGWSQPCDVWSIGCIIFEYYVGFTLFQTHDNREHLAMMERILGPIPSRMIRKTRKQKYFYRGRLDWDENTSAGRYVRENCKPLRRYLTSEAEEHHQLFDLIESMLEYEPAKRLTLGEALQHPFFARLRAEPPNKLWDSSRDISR
How it was run: as §1

p38δ MAPK = target: T2, p38δ MAPK (Homo sapiens, UniProt O15264); conditions: 100 μM compound, 5 μM ATP; read-out: Kinase activity, % of activity in the absence of inhibitor
T2 sequence (O15264 1-365): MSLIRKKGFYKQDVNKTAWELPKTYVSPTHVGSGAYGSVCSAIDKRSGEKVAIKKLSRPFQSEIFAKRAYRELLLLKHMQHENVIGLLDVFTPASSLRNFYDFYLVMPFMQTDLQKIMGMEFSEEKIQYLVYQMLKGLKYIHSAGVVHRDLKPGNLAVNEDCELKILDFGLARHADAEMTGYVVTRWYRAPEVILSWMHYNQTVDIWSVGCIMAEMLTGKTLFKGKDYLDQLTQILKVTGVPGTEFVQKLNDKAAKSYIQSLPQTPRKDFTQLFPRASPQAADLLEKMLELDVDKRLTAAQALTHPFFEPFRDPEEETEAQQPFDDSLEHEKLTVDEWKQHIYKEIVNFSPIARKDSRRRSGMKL
How it was run: as §1

PHKγ1 = PHKγ1 (Homo sapiens, UniProt Q16816); conditions: 100 μM compound, 50 μM ATP; read-out: Kinase activity, % of activity in the absence of inhibitor
Chain of PHKγ1 (Q16816 whole entry): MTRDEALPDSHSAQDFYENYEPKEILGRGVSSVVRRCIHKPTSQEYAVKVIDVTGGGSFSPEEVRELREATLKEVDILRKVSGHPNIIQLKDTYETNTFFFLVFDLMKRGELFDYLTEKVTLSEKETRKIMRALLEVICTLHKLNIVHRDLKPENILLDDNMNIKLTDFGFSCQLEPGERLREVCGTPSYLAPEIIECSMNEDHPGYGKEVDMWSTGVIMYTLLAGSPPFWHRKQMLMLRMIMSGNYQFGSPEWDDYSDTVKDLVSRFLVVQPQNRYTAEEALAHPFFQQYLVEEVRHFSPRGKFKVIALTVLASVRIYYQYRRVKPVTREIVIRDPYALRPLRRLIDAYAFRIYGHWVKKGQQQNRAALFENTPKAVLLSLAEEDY
How it was run: as §1

p38γ MAPK = target: T3, p38γ MAPK (Homo sapiens, UniProt P53778); conditions: 100 μM compound, 5 μM ATP; read-out: Kinase activity, % of activity in the absence of inhibitor
T3 sequence (P53778 1-367): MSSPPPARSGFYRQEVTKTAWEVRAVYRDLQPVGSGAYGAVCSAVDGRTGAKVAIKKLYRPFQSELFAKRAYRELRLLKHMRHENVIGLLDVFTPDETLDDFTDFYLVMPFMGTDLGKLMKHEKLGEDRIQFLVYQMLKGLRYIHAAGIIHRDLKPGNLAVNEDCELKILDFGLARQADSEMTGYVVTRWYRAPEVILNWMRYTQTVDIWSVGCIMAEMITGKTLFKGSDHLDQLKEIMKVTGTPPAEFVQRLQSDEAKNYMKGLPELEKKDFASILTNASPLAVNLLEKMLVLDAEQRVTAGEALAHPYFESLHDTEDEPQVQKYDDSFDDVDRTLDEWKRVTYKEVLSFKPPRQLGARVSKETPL
How it was run: as §1

PAK5 = PAK5 (Homo sapiens, UniProt Q9P286); conditions: 100 μM compound, 20 μM ATP; read-out: Kinase activity, % of activity in the absence of inhibitor
Chain of PAK5 (Q9P286 whole entry): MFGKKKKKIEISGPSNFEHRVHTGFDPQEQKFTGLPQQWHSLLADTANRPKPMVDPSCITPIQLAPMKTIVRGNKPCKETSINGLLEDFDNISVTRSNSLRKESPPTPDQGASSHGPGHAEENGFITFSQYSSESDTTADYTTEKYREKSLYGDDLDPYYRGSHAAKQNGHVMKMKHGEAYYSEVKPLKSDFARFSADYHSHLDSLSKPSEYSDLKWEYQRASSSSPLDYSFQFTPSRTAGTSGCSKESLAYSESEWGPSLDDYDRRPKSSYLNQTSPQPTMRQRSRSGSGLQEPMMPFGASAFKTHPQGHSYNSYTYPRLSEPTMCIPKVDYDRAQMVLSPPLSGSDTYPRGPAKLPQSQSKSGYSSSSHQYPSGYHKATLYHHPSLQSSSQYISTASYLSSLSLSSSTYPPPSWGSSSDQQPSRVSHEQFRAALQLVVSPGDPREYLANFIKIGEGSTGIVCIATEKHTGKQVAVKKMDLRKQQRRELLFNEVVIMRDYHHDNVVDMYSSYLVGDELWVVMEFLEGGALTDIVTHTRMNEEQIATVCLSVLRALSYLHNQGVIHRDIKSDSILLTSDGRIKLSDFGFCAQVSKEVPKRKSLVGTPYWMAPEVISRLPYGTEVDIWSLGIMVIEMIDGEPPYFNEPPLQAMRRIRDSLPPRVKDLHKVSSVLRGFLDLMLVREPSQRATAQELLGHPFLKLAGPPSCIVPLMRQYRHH
How it was run: as §1

Row | SMILES | activity at 100 µM (ASK1) [%] | activity at 100 µM (CLK2) [%] | activity at 100 µM (p38δ MAPK) [%] | activity at 100 µM (PHKγ1) [%] | activity at 100 µM (p38γ MAPK) [%] | activity at 100 µM (PAK5) [%]
1 | Nc1ncnc2c1ncn2C1OC(COP(=O)(O)OP(=O)(O)O)C(O)C1O (stereo not drawn) [ADP] | 70.2 | 33.9 | 37.3 | 75.6 | 26 | 79.5
2 | CC(C)(COP(=O)(O)OP(=O)(O)OCC1OC(n2cnc3c(N)ncnc32)C(O)C1O)C(O)C(=O)NCCC(=O)NCCS (stereo not drawn) [dpCoA, dephospho-CoA] | 88.6 | 80.1 | 71.3 | 90.9 | 65.9 | 86
3 | CC(C)(COP(=O)(O)OP(=O)(O)OC[C@H]1O[C@@H](n2cnc3c(N)ncnc32)[C@H](O)[C@@H]1OP(=O)(O)O)[C@@H](O)C(=O)NCCC(=O)NCCS [CoA, Coenzyme A] | 129 | 109 | 128 | 105 | 127 | 70.6
